Literature values in US11638760B2, “Pyrrolobenzodiazepine antibody conjugates” (priority 2017, dated 2023).

Conditions: Phase I clinical evaluation

SMILES: C=C1C[C@H]2C=Nc3cc(OCCCOc4cc5c(cc4OC)C(=O)N4CC(=C)C[C@H]4C=N5)c(OC)cc3C(=O)N2C1 [SJG-136]
- maximum tolerated dose: 45 μg/m
